The values that follow come from publication PMC4883699 (Bioorganic & medicinal chemistry, 2009).

pIC50: −log10 of the molar value.

One data set is described as follows: in vitro. To be noted: African green monkey.
Another data set has as its system malaria parasite. To be noted: cited from earlier work; for reduction in parasitemia: oral, 2 × 100 μmol/kg; for survival times versus chloroquine or artemisinin treated mice: single dose 50 or 100 μmol/kg.
For data set [1], the system named is P. berghei (NK-65 strain). Put plainly: In vivo antimalarial activity in P. berghei infected mice. Also noted: species or system mice (Swiss Webster). Particulars: for apparent toxicity in vivo: oral, 30 mg/kg once daily for three days, mice.
For data set [2], the system named is Plasmodium falciparum (D6 clone, Sierra Leone, chloroquine sensitive). As to the kind of experiment: In vitro antimalarial activity, chloroquine sensitive D6 clone. The class given is cell-based. To be noted: D6, read-out: P. falciparum (D6 Clone) IC50.
Data set [3] relates to Plasmodium falciparum (W2 clone, IndoChina, chloroquine resistant). As to the kind of experiment: In vitro antimalarial activity, chloroquine resistant W2 clone. The class given is cell-based. Particulars: W2, read-out: P. falciparum (W2 Clone) IC50.
Data set [4] in a line: Cytotoxicity on Vero cells. Particulars: African green monkey.
The subject of data set [5] is Mycobacterium intracellulare. As to the kind of experiment: In vitro antimicrobial activity, M. intracellulare. It counts as cell-based. To be noted: read-out: M. intracellulare IC50.
For data set [6], the system named is African green monkey kidney fibroblast cells (Vero). To be noted: cited from earlier work.
The mark [7] stands for this setting: Vero cells (African green monkey kidney fibroblast cells).

As for `CCCCC(=O)Nc1ccc2[nH]c3c(C4=C[C@@]5(O)CC/C=C\CCCCN6CC[C@@H]4[C@]4(C[C@@H]7/C=C\CCCCN7[C@H]45)C6)nccc3c2c1` [Compound 9, 6-n-Pentamidomanzamine A], the pIC50 in the data set “in vitro” is less than 6.33. With `Oc1cccc2c1[nH]c1c(C3=C[C@@]4(O)CC/C=C\CCCCN5CC[C@@H]3[C@]3(C[C@@H]6/C=C\CCCCN6[C@H]34)C5)nccc12` [Compound 2, 8-Hydroxymanzamine A], in the data set on malaria parasite, the reduction in parasitemia is 90% and the “survival times versus chloroquine or artemisinin treated mice” value was “significant improvements in survival times”. In “in vitro”, `O=C(Nc1cccc2c1[nH]c1c(C3=C[C@@]4(O)CC/C=C\CCCCN5CC[C@@H]3[C@]3(C[C@@H]6/C=C\CCCCN6[C@H]34)C5)nccc12)C1CCCCC1` [Compound 24, 8-Cyclohexamidomanzamine A] had a pIC50 of less than 6.33. Consider `CCCCCC(=O)Nc1cccc2c1[nH]c1c(C3=C[C@@]4(O)CC/C=C\CCCCN5CC[C@@H]3[C@]3(C[C@@H]6/C=C\CCCCN6[C@H]34)C5)nccc12` [Compound 21, 8-n-Hexamidomanzamine A], for which the “apparent toxicity in vivo” value in data set [1] was “no apparent toxicity”.

With `CCN(CC)CCCC(C)Nc1ccnc2cc(Cl)ccc12` (centres unmarked) [Chloroquine], the results for the negative logarithm of the IC50 (pIC50) in data set [2] and in data set [3] were 7.30 and 6.32, respectively. Also, the “suppression of the parasitemia” value in data set [1] (chloroquine control, 10 mg/kg, three doses) is on record as 100%. `O=C(Nc1ccc2[nH]c3c(C4=C[C@@]5(O)CC/C=C\CCCCN6CC[C@@H]4[C@]4(C[C@@H]7/C=C\CCCCN7[C@H]45)C6)nccc3c2c1)C1CCCCC1` [Compound 14, 6-Cyclohexamidomanzamine A]: the pIC50 in data set [4] is less than 6.33. The “apparent toxicity in vivo” value in data set [1] is given as “no apparent toxicity”. Turning to `CC(C)(C)C(=O)Nc1ccc2[nH]c3c(C4=C[C@@]5(O)CC/C=C\CCCCN6CC[C@@H]4[C@]4(C[C@@H]7/C=C\CCCCN7[C@H]45)C6)nccc3c2c1` [Compound 10, 6-Pivalamidomanzamine A], in data set [4] (setting [7]), the pIC50 is less than 6.33. With `CCCCC(=O)Nc1cccc2c1[nH]c1c(C3=C[C@@]4(O)CC/C=C\CCCCN5CC[C@@H]3[C@]3(C[C@@H]6/C=C\CCCCN6[C@H]34)C5)nccc12` [Compound 19, 8-n-Pentamidomanzamine A], the pIC50 in “in vitro” is less than 6.33. `CC(C)C(=O)Nc1ccc2[nH]c3c(C4=C[C@@]5(O)CC/C=C\CCCCN6CC[C@@H]4[C@]4(C[C@@H]7/C=C\CCCCN7[C@H]45)C6)nccc3c2c1` [Compound 8, 6-Isobutamidomanzamine A] showed a pIC50 in data set [4] of less than 6.33. Take `CC(C)C(=O)Nc1cccc2c1[nH]c1c(C3=C[C@@]4(O)CC/C=C\CCCCN5CC[C@@H]3[C@]3(C[C@@H]6/C=C\CCCCN6[C@H]34)C5)nccc12` [Compound 18, 8-Isobutamidomanzamine A]: the negative-log IC50 (pIC50) in data set [4] (setting [7]) is less than 6.33. In the case of `CC(C)(C)CC(=O)Nc1cccc2c1[nH]c1c(C3=C[C@@]4(O)CC/C=C\CCCCN5CC[C@@H]3[C@]3(C[C@@H]6/C=C\CCCCN6[C@H]34)C5)nccc12` [Compound 23, 8-(t-Butyl)-acetamidomanzamine A], in “in vitro”, the pIC50 was less than 6.33. The compound `CCC(=O)Nc1ccc2[nH]c3c(C4=C[C@@]5(O)CC/C=C\CCCCN6CC[C@@H]4[C@]4(C[C@@H]7/C=C\CCCCN7[C@H]45)C6)nccc3c2c1` [Compound 6, 6-n-Propamidomanzamine A] gave a pIC50 in data set [4] (setting [7]) of less than 6.33. In turn, `CC(C)(C)CC(=O)Nc1ccc2[nH]c3c(C4=C[C@@]5(O)CC/C=C\CCCCN6CC[C@@H]4[C@]4(C[C@@H]7/C=C\CCCCN7[C@H]45)C6)nccc3c2c1` [Compound 13, 6-(t-Butyl)-acetamidomanzamine A] gave a pIC50 in data set [4] (setting [7]) of less than 6.33. As for `CCCCCC(=O)Nc1ccc2[nH]c3c(C4=C[C@@]5(O)CC/C=C\CCCCN6CC[C@@H]4[C@]4(C[C@@H]7/C=C\CCCCN7[C@H]45)C6)nccc3c2c1` [Compound 11, 6-n-Hexamidomanzamine A], the pIC50 in the data set “in vitro” was less than 6.33. In the case of `O[C@]12C=C(c3nccc4c3[nH]c3ccccc34)[C@@H]3CCN(CCCC/C=C\CC1)C[C@@]31C[C@@H]3/C=C\CCCCN3[C@H]12` [Compound 1, Manzamine A], the pIC50 in data set [4] was 6.44; in data set [5] it was 6.19. In addition, in the data set on malaria parasite, the reduction in parasitemia is reported as 90%. Further, the “survival times versus chloroquine or artemisinin treated mice” value with malaria parasite is given as “significant improvements in survival times”. For the same compound, the “TC50 against Vero cells” value in data set [6] was 365 nM.
